The text below walks through data of patent US9801383B2, “Synergistic pesticidal compositions and related methods” (priority 2013, dated 2017).

Common to all, as to format: in vivo
Assay [1] relates to diamondback moth, Plutella xylostella. The experiment in a line: Cabbage plant track-sprayer bioassay against diamondback moth. Conditions: single active, 0.0025 weight %, second instar. As to the method:
A pesticidal composition was prepared by thoroughly mixing about 0.04 weight % of N-(3-chloro-1-(pyridin-3-yl)-1H-pyrazol-4-yl)-N-ethyl-3-((3,3,3-trifluoropropyl)sulfinyl) propanamide (hereinafter “compound II”) with about 0.000156 weight % of chlorpyrifos.
The bioassays were performed for different active compounds. Cabbage plants with about two to three new-growth-true leaf stage were treated with different active compounds using a track sprayer application at 400 L/Ha spray volume. Three second instar diamondback moth, Plutella xylostella, were infested onto each leaf disc. The percent control of the pesticidal composition against diamondback moth, Plutella xylostella, was determined as the “Observed” action, and compared to those obtained by using about 0.0025 weight % of compound II, and using about 0.0025 weight % of chlorpyrifos alone. The “Colby's Expected Action” was calculated using Colby's equation as discussed previously.

Assay [2] relates to Western flower thrips, Frankliniella occidentalis. The assay is described as follows: Cotton leaf punch dip bioassay against Western flower thrips. The conditions noted are these: single active. As to the method:
The active compositions were formulated in a 10% acetone solution with 0.025% non-ionic surfactant, TWEEN® 20. Cotton leaf punches were used for bioassays. Two cotton leaf punches were placed in each solution and left there for 10 minutes. Leaves were taken out of the solution, placed on a piece of filter paper in separated Petri dishes, and air dried. Each leaf disc was considered a repetition. Five nymphs of Western flower thrips, Frankliniella occidentalis, were infested per repetition.
The active compounds were formulated in a 10% acetone solution with 0.025% non-ionic surfactant, TWEEN® 20. Cotton leaf punches were used for bioassays. Two cotton leaf punches were placed in each solution and left there for 10 minutes. Leaves were taken out of the solution, placed on a piece of filter paper in separated Petri dishes, and air dried. Each leaf disc was considered a repetition. Five nymphs of Western flower thrips, Frankliniella occidentalis, were infested per repetition.

Assay [3] has as its system plant bugs, Lygus hesperus. The experiment in a line: Bean piece dip bioassay against Western plant bugs. The conditions noted are these: single active. As to the method: The active compositions were formulated in a 10% acetone solution with 0.025% non-ionic surfactant, TWEEN® 20. Bean pieces (about one inch-long) were used for the tests. Four bean pieces were placed in each tested active solution and left there for 10 minutes. Bean pieces were taken out of the active solution, and each piece was placed in a well in a 32-well tray and allowed to air dry. Three third-instar nymphs of Western plant bugs, Lygus hesperus, were infested into each well.

Assay [4] deals with brown stink bug, Euschistus heros. The experiment in a line: Bean piece dip bioassay against brown stink bug. Conditions: single active. As to the method:
The active compositions were formulated in a 10% acetone solution with 0.025% non-ionic surfactant, TWEEN® 20. Bean pieces (about one inch-long) were used for the tests. Four bean pieces were placed in each tested active solution and left there for 10 minutes. Bean pieces were taken out of the active solution, and each piece was placed in a well in a 32-well tray and allowed to air dry. Three third-instar nymphs of brown stink bug, Euschistus heros, were infested into each well.
A pesticidal composition formulated in a 10% acetone solution with 0.025% non-ionic surfactant, TWEEN® 20 were tested against brown stink bugs, Euschistus heros, according to the procedure described in example 8A.

Where [5] appears, read: 0.04 weight %, third-instar nymphs.

Regarding `CCOP(=S)(OCC)Oc1nc(Cl)c(Cl)cc1Cl` [Chlorpyrifos, O,O-diethyl O-3,5,6-trichloropyridin-2-yl phosphorothioate], the “% Control Three Days After Treatment” value in assay [1] is 0%; in assay [1] (listed as chlorpyrifos), “substantially no pesticidal activity”; in assay [2] (0.0000049 weight %), 0%; in assay [2] (0.0000049 weight %, listed as chlorpyrifos), “no activity”; in assay [2] (0.0000195 weight %), 20%; in assay [2] (0.0003125 weight %) it was 70%. For the same compound, the “% Control Three Days After Treatment” value stood at 80% in assay [2] (0.00125 weight %) and 50% in assay [3] (0.0003125 weight %). Further, the “% Control Four Days After Treatment” value in assay [4] (0.000156 weight %) was 0%; in assay [4] (0.000156 weight %, listed as chlorpyrifos) it was “no activity”; in assay [4] (0.000625 weight %), 92%.

Take `CCN(C(=O)CCSCCC(F)(F)F)c1cn(-c2cccnc2)nc1Cl` [Compound I, N-(3-chloro-1-(pyridin-3-yl)-1H-pyrazol-4-yl)-N-ethyl-3-((3,3,3-trifluoropropyl)thio)propanamide]: the “% Control Three Days After Treatment” value in assay [2] (0.04 weight %, nymphs) worked out at 20%. Further, the “% Control Four Days After Treatment” value in assay [4] (setting [5]) is recorded as “no activity”.

`CCN(C(=O)CC[S+]([O-])CCC(F)(F)F)c1cn(-c2cccnc2)nc1Cl` (centres unmarked) [Compound II, N-(3-chloro-1-(pyridin-3-yl)-1H-pyrazol-4-yl)-N-ethyl-3-((3,3,3-trifluoropropyl)sulfinyl)propanamide]: the “% Control Three Days After Treatment” value is on record as “substantially no pesticidal activity” in assay [1]; 0% in assay [2] (0.04 weight %, nymphs); “no activity” in assay [2] (0.04 weight %, nymphs, listed as compound II); 0% in assay [3] (setting [5]).
